Data taken from US20260130928A1, “COMBINATION OF AKR1C3 ACTIVATED ANTICANCER PRODRUG COMPOUND AND ANALGESIC DRUG FOR TREATING CANCER PATIENTS ACCOMPANIED BY PAIN” (ASCENTAWITS PHARMACEUTICALS, LTD., priority 2022, published 2026).
Like-named read-outs stand apart in the source and are kept apart here.

How the values were obtained:
[1] = Body weight / tolerance of mice in the human lung cancer NCI-H460 model
Description: BALB/c nude mice were subcutaneously inoculated with human lung cancer NCI-H460 cells to establish the subcutaneous transplant tumor model of human lung cancer. The experiment was assigned to seven groups, with 5 mice in each group: the test drug Celecoxib 50 mg/kg and 100 mg/kg groups, the AST-3424 2.5 mg/kg group, and different combination therapy groups of Celecoxib 50 mg/kg or 100 mg/kg and AST-3424 2.5 mg/kg, and the 0.5% sodium carboxymethylcellulose vehicle control group. […] The AST-3424 2.5 mg/kg group was administered by tail vein injection once a week for a total of three weeks, and observed for 7 days. In the combination therapy groups of Celecoxib 50 mg/kg or 100 mg/kg and AST-3424 2.5 mg/kg, Celecoxib was administered by gavage once a day for a total of 15 days, and AST-3424 was administered by tail vein injection once a week for a total of three weeks, and observed for 7 days.

[2] = system: H460 cell line; assay: Cell proliferation inhibition by combining Naproxen or TH-3021 and AST-3424 in different sequence of administration (CTG); format: cell-based, human; conditions: Homo sapiens, AST-3424 alone 2 h as reference, H460
Description: The following are the different treatment methods. […] The plate was shaken gently to ensure uniform mixing, and placed in the incubator for 2 hours. […] The plate was shaken gently to ensure uniform mixing, and placed in the incubator for 2 hours. Subsequently, the plate was washed to remove the compound, and placed in the incubator at 37° C. with 5% CO2 for further 72 hours. […] The plate was shaken gently to ensure uniform mixing, and placed in the incubator for 2 hours. Subsequently, the plate was washed to remove the compounds, and placed in the incubator at 37° C. with 5% CO2 for 72 hours. […] The plate was shaken gently to ensure uniform mixing, and placed in the incubator for 2 hours. […] The plate was shaken gently to ensure uniform mixing, and placed in the incubator for 2 hours. Subsequently, the plate was washed to remove the compounds, and placed in the incubator at 37° C. with 5% CO2 for further 72 hours. […] The plate was shaken gently to ensure uniform mixing, and placed in the incubator for 2 hours. […] The plate was shaken gently to ensure uniform mixing, and placed in the incubator for 2 hours. Subsequently, the plate was washed to remove the compounds, and placed in the incubator at 37° C. with 5% CO2 for further 72 hours. b) Administrating single drug: after 24 hours of cell seeding, the compound was administered alone. […] The plate was shaken gently to ensure uniform mixing, and placed in the incubator at 37° C. with 5% CO2 for 2 hours. Subsequently, the compound was washed off, and each well was added with fresh medium. The plate was placed in the incubator at 37° C. with 5% CO2 for further 72 hours.

[3] = system: human lung cancer NCI-H460; assay: Pharmacodynamics in subcutaneous xenograft model of human lung cancer NCI-H460 (tumor volume, TGI); format: in vivo, BALB/c nude mice; conditions: Group 7: AST-3424 2.5 mg/kg QW×3 i.v.
Description: Measures of pharmacodynamics of AST-3424 monotherapy and combination therapy with Celecoxib were performed in a subcutaneous xenograft model of human lung cancer NCI-H460 established by using female BALB/c nude mice.
After the inoculation of tumor cell, tumor growth was routinely monitored, and tumor volume and mouse weight were measured. Evaluation of therapeutic efficiency was based on the relative tumor growth inhibition TGI (%). The specific results are shown in Table 3 and FIG. 3, and the Pharmacodynamics analysis data on Day 30 after inoculation (at the end of drug administration) are particularly given in Table 4.

[4] = cited from earlier work; for AUC0-t / CL (L/h/m^2) / Cmax / T1/2 / Tmax / Vdss (L/m^2): patients, mean
[5] = Group 7: AST-3424 2.5 mg/kg QW×3 i.v., Day 37 after the inoculation of tumor cell
[6] = OBI-3424 dose level 1 mg/m^2, infusion
[7] = OBI-3424 dose level 2 mg/m^2, infusion
[8] = OBI-3424 dose level 4 mg/m^2, infusion
[9] = OBI-3424 dose level 6 mg/m^2, infusion
[10] = OBI-3424 dose level 8 mg/m^2, infusion
[11] = OBI-3424 dose level 10 mg/m^2, infusion
[12] = OBI-3424 dose level 12 mg/m^2, infusion
[13] = OBI-3424 dose level 14 mg/m^2, infusion

C[C@H](OP(=O)(N1CC1)N1CC1)c1ccc([N+](=O)[O-])c(Oc2cccc(C(=O)N(C)C)c2)c1 [AST-3424]
Mean body weight g (x ± S) ([1]; Group 7: AST-3424 2.5 mg/kg QW×3 i.v., Day 9 after the inoculation of tumor cell): 25.6 ± 0.7 g
Change of body weight (%) [1, 5]: −11.74%
Mean body weight g (x ± S) [1, 5]: 22.5 ± 0.5 g
tolerance of mice ([1]; NCI-H460 model): good tolerance
IC50 ([2]; NCI-H460, 2 h, Group 2: TH-3021 3 μM or Naproxen 400 μM + AST-3424 2 h simultaneously): 1.08 nM
IC50 ([2]; NCI-H460, Group 1: TH-3021 3 μM or Naproxen 400 μM 2 h pretreatment, washed off, then AST-3424 2 h): 0.88 nM
IC50 ([2]; NCI-H460, Group 3: AST-3424 2 h pretreatment, washed off, then TH-3021 3 μM or Naproxen 400 μM 2 h): 1 nM
IC50 ([2]; NCI-H460, Group 4: TH-3021 3 μM or Naproxen 400 μM 2 h pretreatment, not washed off, AST-3424 2 h cotreatment): 1.14 nM
Tumor volume (x ± S) ([3]; Day 9 after cell inoculation): 144.01 ± 11.36 mm^3
Tumor volume (x ± S) ([3]; Day 12 after cell inoculation): 164.28 ± 17.97 mm^3
Tumor volume (x ± S) ([3]; Day 16 after cell inoculation): 166.22 ± 18.81 mm^3
Tumor volume (x ± S) ([3]; Day 19 after cell inoculation): 209.80 ± 41.43 mm^3
Tumor volume (x ± S) ([3]; Day 23 after cell inoculation): 208.60 ± 43.27 mm^3
Tumor volume (x ± S) ([3]; Day 26 after cell inoculation): 291.82 ± 67.06 mm^3
Tumor volume (x ± S) ([3]; Day 30 after cell inoculation): 327.47 ± 85.10 mm^3
Relative tumor volume (x ± S) ([3]; Day 30 after inoculation): 2.19 ± 0.41
T/C (%) ([3]; Day 30 after inoculation): 39.25%
TGI (%) ([3]; Day 30 after inoculation, 2.5 mg/kg): 60.75%
Tumor volume (x ± S) ([3]; Day 30 after inoculation, in mm³): 327.47 ± 85.10
Tumor volume (x ± S) ([3]; Day 33 after cell inoculation): 348.83 ± 90.34 mm^3
Tumor volume (x ± S) ([3]; Day 37 after cell inoculation): 439.52 ± 142.78 mm^3
AUC0-t [4, 6]: 217.10 ng·h/mL
CL (L/h/m^2) [4, 6]: 4.74 L/h/m^2
Cmax [4, 6]: 289.30 ng/mL
T1/2 [4, 6]: 17.4 min
Tmax [4, 6]: 27.6 min
Vdss (L/m^2) [4, 6]: 2.45 L/m^2
AUC0-t [4, 7]: 298.00 ng·h/mL
CL (L/h/m^2) [4, 7]: 8.85 L/h/m^2
Cmax [4, 7]: 375.80 ng/mL
T1/2 [4, 7]: 18.6 min
Tmax [4, 7]: 30 min
Vdss (L/m^2) [4, 7]: 4.13 L/m^2
AUC0-t [4, 8]: 650.90 ng·h/mL
CL (L/h/m^2) [4, 8]: 7.74 L/h/m^2
Cmax [4, 8]: 803.50 ng/mL
T1/2 [4, 8]: 12.6 min
Tmax [4, 8]: 19.8 min
Vdss (L/m^2) [4, 8]: 2.68 L/m^2
AUC0-t [4, 9]: 1278.10 ng·h/mL
CL (L/h/m^2) [4, 9]: 4.84 L/h/m^2
Cmax [4, 9]: 1360.30 ng/mL
T1/2 [4, 9]: 44.4 min
Tmax [4, 9]: 30 min
Vdss (L/m^2) [4, 9]: 3.72 L/m^2
AUC0-t [4, 10]: 1678.40 ng·h/mL
CL (L/h/m^2) [4, 10]: 6.53 L/h/m^2
Cmax [4, 10]: 1613.10 ng/mL
T1/2 [4, 10]: 40.2 min
Tmax [4, 10]: 25.2 min
Vdss (L/m^2) [4, 10]: 3.97 L/m^2
AUC0-t [4, 11]: 2037.00 ng·h/mL
CL (L/h/m^2) [4, 11]: 4.92 L/h/m^2
Cmax [4, 11]: 2654.70 ng/mL
T1/2 [4, 11]: 34.2 min
Tmax [4, 11]: 30 min
Vdss (L/m^2) [4, 11]: 3.06 L/m^2
AUC0-t [4, 12]: 2159.40 ng·h/mL
CL (L/h/m^2) [4, 12]: 8.20 L/h/m^2
Cmax [4, 12]: 2481.90 ng/mL
T1/2 [4, 12]: 33 min
Tmax [4, 12]: 26.4 min
Vdss (L/m^2) [4, 12]: 4.33 L/m^2
AUC0-t [4, 13]: 2131.80 ng·h/mL
CL (L/h/m^2) [4, 13]: 8.49 L/h/m^2
Cmax [4, 13]: 2619.20 ng/mL
T1/2 [4, 13]: 33 min
Tmax [4, 13]: 25.2 min
Vdss (L/m^2) [4, 13]: 4.31 L/m^2
accumulation of exposure (Cmax and AUC) ([4]; between the two doses (Cycle 1 Day1 and Cycle 1 Day8)): no accumulation of exposure
